From US9873709B2 (priority 2013, dated 2018)
Structures can show the parent of a compound that is named as a salt.

Tested on: JAK1-dependent STAT6 phosphorylation downstream of IL-13 stimulation in TF-1 human erythroleukemia cells
Test: cells
Conditions: TF-1, read-out: IL-13-pSTAT6 IC50

| Compound | IC50 [nM] |
| --- | --- |
| O=C(N[C@H]1CN2CCC1CC2)c1ccc(Nc2nc3c(C4=CCN(C(=O)CCC(F)(F)F)CC4)cccn3n2)cc1 [Example 2-469, N-[(3R)-quinuclidin-3-yl]-4-[[8-[1-(4,4,4-trifluorobutanoyl)-3,6-dihydro-2H-pyridin-4-yl]-[1,2,4]triazolo[1,5-a]pyridin-2-yl]amino]benzamide] | 83.8 |
| CNC(=O)C1CN(C(=O)c2ccc(Nc3nc4c(C5=CCN(C(=O)CCC(F)(F)F)CC5)cccn4n3)cc2)CCN1CCc1ccccc1 (stereo not drawn) [Example 2-470, N-methyl-1-(2-phenylethyl)-4-[4-[[8-[1-(4,4,4-trifluorobutanoyl)-3,6-dihydro-2H-pyridin-4-yl]-[1,2,4]triazolo[1,5-a]pyridin-2-yl]amino]benzoyl] piperazine-2-carboxamide] | 13 |
| O=C(CCC(F)(F)F)N1CC=C(c2cccn3nc(Nc4ccc(C(=O)N5CCC(Cc6ccccn6)C5)cc4)nc23)CC1 (stereo not drawn) [Example 2-471, 4,4,4-trifluoro-1-[4-[2-[4-[3-(2-pyridylmethyl)pyrrolidine-1-carbonyl]anilino]-[1,2,4]triazolo[1,5-a]pyridin-8-yl]-3,6-dihydro-2H-pyridin-1-yl]butan-1-one] | 6.4 |
| CN(Cc1ccccc1)C1CCCN(C(=O)c2ccc(Nc3nc4c(C5=CCN(C(=O)CCC(F)(F)F)CC5)cccn4n3)cc2)C1 (stereo not drawn) [Example 2-472, 1-[4-[2-[4-[3-[benzyl(methyl)amino]piperidine-1-carbonyl]anilino]-[1,2,4]triazolo[1,5-a]pyridin-8-yl]-3,6-dihydro-2H-pyridin-1-yl]-4,4,4-trifluoro-butan-1-one] | 67.9 |
| CN(C(=O)c1ccc(Nc2nc3c(C4=CCN(C(=O)CCC(F)(F)F)CC4)cccn3n2)cc1)C1CCN(Cc2ccccc2)C1 (stereo not drawn) [Example 2-473, N-(1-benzylpyrrolidin-3-yl)-N-methyl-4-[[8-[1-(4,4,4-trifluorobutanoyl)-3,6-dihydro-2H-pyridin-4-yl]-[1,2,4]triazolo[1,5-a]pyridin-2-yl]amino]benzamide] | 48.1 |
| O=C(CCC(F)(F)F)N1CC=C(c2cccn3nc(Nc4ccc(C(=O)N5CCN(CCN6CCOCC6)CC5)cc4)nc23)CC1 [Example 2-474, 4,4,4-trifluoro-1-[4-[2-[4-[4-(2-morpholinoethyl)piperazine-1-carbonyl]anilino]-[1,2,4]triazolo[1,5-a]pyridin-8-yl]-3,6-dihydro-2H-pyridin-1-yl]butan-1-one] | 14.1 |
| CN1CCN(C(=O)C2CCN(C(=O)c3ccc(Nc4nc5c(C6=CCN(C(=O)CCC(F)(F)F)CC6)cccn5n4)cc3)CC2)CC1 [Example 2-475, 4,4,4-trifluoro-1-[4-[2-[4-[4-(4-methylpiperazine-1-carbonyl)piperidine-1-carbonyl]anilino]-[1,2,4]triazolo[1,5-a]pyridin-8-yl]-3,6-dihydro-2H-pyridin-1-yl]butan-1-one] | 42.9 |
| Cc1cccnc1CN(C)C(=O)c1ccc(Nc2nc3c(C4=CCN(C(=O)CCC(F)(F)F)CC4)cccn3n2)cc1 [Example 2-476, N-methyl-N-[(3-methyl-2-pyridyl)methyl]-4-[[8-[1-(4,4,4-trifluorobutanoyl)-3,6-dihydro-2H-pyridin-4-yl]-[1,2,4]triazolo[1,5-a]pyridin-2-yl]amino]benzamide] | 10.5 |
| CN(Cc1ccc2c(c1)CCCN2C)C(=O)c1ccc(Nc2nc3c(C4=CCN(C(=O)CCC(F)(F)F)CC4)cccn3n2)cc1 [Example 2-477, N-methyl-N-[(1-methyl-3,4-dihydro-2H-quinolin-6-yl)methyl]-4-[[8-[1-(4,4,4-trifluorobutanoyl)-3,6-dihydro-2H-pyridin-4-yl]-[1,2,4]triazolo[1,5-a]pyridin-2-yl]amino]benzamide] | 113 |
| O=C(NCCc1ccccn1)c1ccc(Nc2nc3c(C4=CCN(C(=O)CCC(F)(F)F)CC4)cccn3n2)cc1 [Example 2-478, N-[2-(2-pyridyl)ethyl]-4-[[8-[1-(4,4,4-trifluorobutanoyl)-3,6-dihydro-2H-pyridin-4-yl]-[1,2,4]triazolo[1,5-a]pyridin-2-yl]amino]benzamide] | 4.8 |
| CN1CCC(N(C)C(=O)c2ccc(Nc3nc4c(C5=CCN(S(=O)(=O)N6CC(C)(C)C6)CC5)cccn4n3)cc2)CC1 [Example 2-479, 4-[[8-[1-(3,3-dimethylazetidin-1-yl)sulfonyl-3,6-dihydro-2H-pyridin-4-yl]-[1,2,4]triazolo[1,5-a]pyridin-2-yl]amino]-N-methyl-N-(1-methyl-4-piperidyl)benzamide] | 239 |
| CN1CCC(N(C)C(=O)c2ccc(Nc3nc4c(C5=CCN(C(=O)N6CC(C)(C)C6)CCC5)cccn4n3)cc2)CC1 [Example 2-480, 4-[[8-[1-(3,3-dimethylazetidine-1-carbonyl)-2,3,4,7-tetrahydroazepin-5-yl]-[1,2,4]triazolo[1,5-a]pyridin-2-yl]amino]-N-methyl-N-(1-methyl-4-piperidyl)benzamide] | 178 |

Molecular target: isolated recombinant JAK2 kinase domain (Homo sapiens (Human), UniProt O60674)
Test: not given
Conditions: read-out: JAK2 Ki; isolated recombinant JAK2 kinase domain, 25 μM ATP

isolated recombinant JAK2 kinase domain, sequence (O60674 849-1124): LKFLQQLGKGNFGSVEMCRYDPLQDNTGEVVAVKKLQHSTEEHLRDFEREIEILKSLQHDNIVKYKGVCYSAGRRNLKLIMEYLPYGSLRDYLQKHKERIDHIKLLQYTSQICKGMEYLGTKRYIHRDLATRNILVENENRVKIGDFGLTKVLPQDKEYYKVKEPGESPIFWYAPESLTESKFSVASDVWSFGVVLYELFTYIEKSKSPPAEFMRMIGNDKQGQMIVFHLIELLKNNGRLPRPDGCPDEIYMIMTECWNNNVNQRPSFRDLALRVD

| Compound | Ki [nM] |
| --- | --- |
| CN1CCC(N(C)C(=O)c2ccc(Nc3nc4c(N5CCC(C)(c6ccccc6)CC5)cccn4n3)cc2)CC1 [Example 1-1, N-methyl-4-(8-(4-methyl-4-phenylpiperidin-1-yl)-[1,2,4]triazolo[1,5-a]pyridin-2-ylamino)-N-(1-methylpiperidin-4-yl)benzamide] | 0.85 |
| CN1CCC(N(C)C(=O)c2ccc(Nc3nc4c(N5CCC(O)(C6CCCCC6)CC5)cccn4n3)cc2)CC1 [Example 1-2, 4-[[8-(4-cyclohexyl-4-hydroxy-1-piperidyl)-[1,2,4]triazolo[1,5-a]pyridin-2-yl]amino]-N-methyl-N-(1-methyl-4-piperidyl)benzamide] | 14.2 |
| CN1CCC(N(C)C(=O)c2ccc(Nc3nc4c(N5CCC(O)CC5)cccn4n3)cc2)CC1 [Example 1-3, 4-[[8-(4-hydroxy-1-piperidyl)-[1,2,4]triazolo[1,5-a]pyridin-2-yl]amino]-N-methyl-N-(1-methyl-4-piperidyl)benzamide; hydrochloride] | 92.4 |
| CN1CCC(N(C)C(=O)c2ccc(Nc3nc4c(N5CC=C(c6ccccc6)CC5)cccn4n3)cc2)CC1 [Example 1-4, N-methyl-N-(1-methyl-4-piperidyl)-4-[[8-(4-phenyl-3,6-dihydro-2H-pyridin-1-yl)-[1,2,4]triazolo[1,5-a]pyridin-2-yl]amino]benzamide] | 12.4 |
| CN1CCC(N(C)C(=O)c2ccc(Nc3nc4c(N5CCC(C)(O)CC5)cccn4n3)cc2)CC1 [Example 1-6, 4-[[8-(4-hydroxy-4-methyl-1-piperidyl)-[1,2,4]triazolo[1,5-a]pyridin-2-yl]amino]-N-methyl-N-(1-methyl-4-piperidyl)benzamide; hydrochloride] | 39.9 |
| CN1CCC(N(C)C(=O)c2ccc(Nc3nc4c(N5CCCC(O)(c6ccccc6)CC5)cccn4n3)cc2)CC1 (stereo not drawn) [Example 1-7, 4-[[8-(4-hydroxy-4-phenyl-azepan-1-yl)-[1,2,4]triazolo[1,5-a]pyridin-2-yl]amino]-N-methyl-N-(1-methyl-4-piperidyl)benzamide] | 6.51 |
| CN1CCC(N(C)C(=O)c2ccc(Nc3nc4c(N5CCC=C(c6ccccc6)CC5)cccn4n3)cc2)CC1 [Example 1-14, N-methyl-N-(1-methyl-4-piperidyl)-4-[[8-(4-phenyl-2,3,6,7-tetrahydroazepin-1-yl)-[1,2,4]triazolo[1,5-a]pyridin-2-yl]amino]benzamide] | 7.53 |
| CN1CCC(N(C)C(=O)c2ccc(Nc3nc4c(N5CC=C(c6ccccc6)CCC5)cccn4n3)cc2)CC1 [Example 1-15, N-methyl-N-(1-methyl-4-piperidyl)-4-[[8-(5-phenyl-2,3,4,7-tetrahydroazepin-1-yl)-[1,2,4]triazolo[1,5-a]pyridin-2-yl]amino]benzamide] | 12.2 |
| CN1CCC(N(C)C(=O)c2ccc(Nc3nc4c(N5CCC(F)(c6ccccc6)CC5)cccn4n3)cc2)CC1 [Example 1-16, 4-[[8-(4-fluoro-4-phenyl-1-piperidyl)-[1,2,4]triazolo[1,5-a]pyridin-2-yl]amino]-N-methyl-N-(1-methyl-4-piperidyl)benzamide] | 25.5 |
| CN1CCC(N(C)C(=O)c2ccc(Nc3nc4c(N5CCC(O)(c6cccc(Cl)c6)CC5)cccn4n3)cc2)CC1 [Example 1-18, 4-[[8-[4-(3-chlorophenyl)-4-hydroxy-1-piperidyl]-[1,2,4]triazolo[1,5-a]pyridin-2-yl]amino]-N-methyl-N-(1-methyl-4-piperidyl)benzamide] | 17.3 |
| CN1CCC(N(C)C(=O)c2ccc(Nc3nc4c(N5CCC(O)(c6ccncc6)CC5)cccn4n3)cc2)CC1 [Example 1-20, 4-[[8-[4-hydroxy-4-(4-pyridyl)-1-piperidyl]-[1,2,4]triazolo[1,5-a]pyridin-2-yl]amino]-N-methyl-N-(1-methyl-4-piperidyl)benzamide] | 36.8 |
| CN1CCC(N(C)C(=O)c2ccc(Nc3nc4c(N5CCC(O)(c6cccc(C#N)c6)CC5)cccn4n3)cc2)CC1 [Example 1-22, 4-[[8-[4-(3-cyanophenyl)-4-hydroxy-1-piperidyl]-[1,2,4]triazolo[1,5-a]pyridin-2-yl]amino]-N-methyl-N-(1-methyl-4-piperidyl)benzamide] | 32.1 |
| CN1CCC(N(C)C(=O)c2ccc(Nc3nc4c(N5CCC6(CNC(=O)O6)C5)cccn4n3)cc2)CC1 (stereo not drawn) [Example 1-24, N-methyl-N-(1-methyl-4-piperidyl)-4-[[8-(2-oxo-1-oxa-3,7-diazaspiro[4.4]nonan-7-yl)-[1,2,4]triazolo[1,5-a]pyridin-2-yl]amino]benzamide] | 19.1 |
| CN1CCC(N(C)C(=O)c2ccc(Nc3nc4c(N5CCN6CCOC[C@@H]6C5)cccn4n3)cc2)CC1 [Example 1-25, 4-[[8-[(9aS)-3,4,6,7,9,9a-hexahydro-1H-pyrazino[2,1-c][1,4]oxazin-8-yl]-[1,2,4]triazolo[1,5-a]pyridin-2-yl]amino]-N-methyl-N-(1-methyl-4-piperidyl)benzamide] | 49.1 |
| CN1CCC(N(C)C(=O)c2ccc(Nc3nc4c(N5CCC6(CC5)CNC(=O)C6)cccn4n3)cc2)CC1 [Example 1-27, N-methyl-N-(1-methyl-4-piperidyl)-4-[[8-(3-oxo-2,8-diazaspiro[4.5]decan-8-yl)-[1,2,4]triazolo[1,5-a]pyridin-2-yl]amino]benzamide] | 17.2 |
